From patent publication US9957271B2, “Substituted bicyclic aza-heterocycles and analogues as sirtuin modulators” (GlaxoSmithKline, LLC, priority 2012, dated 2018)
Like-named read-outs stand apart in the source and are kept apart here.

Target: T1, SIRT1 (Homo sapiens, UniProt Q96EB6)
T1 sequence (Q96EB6 1-747): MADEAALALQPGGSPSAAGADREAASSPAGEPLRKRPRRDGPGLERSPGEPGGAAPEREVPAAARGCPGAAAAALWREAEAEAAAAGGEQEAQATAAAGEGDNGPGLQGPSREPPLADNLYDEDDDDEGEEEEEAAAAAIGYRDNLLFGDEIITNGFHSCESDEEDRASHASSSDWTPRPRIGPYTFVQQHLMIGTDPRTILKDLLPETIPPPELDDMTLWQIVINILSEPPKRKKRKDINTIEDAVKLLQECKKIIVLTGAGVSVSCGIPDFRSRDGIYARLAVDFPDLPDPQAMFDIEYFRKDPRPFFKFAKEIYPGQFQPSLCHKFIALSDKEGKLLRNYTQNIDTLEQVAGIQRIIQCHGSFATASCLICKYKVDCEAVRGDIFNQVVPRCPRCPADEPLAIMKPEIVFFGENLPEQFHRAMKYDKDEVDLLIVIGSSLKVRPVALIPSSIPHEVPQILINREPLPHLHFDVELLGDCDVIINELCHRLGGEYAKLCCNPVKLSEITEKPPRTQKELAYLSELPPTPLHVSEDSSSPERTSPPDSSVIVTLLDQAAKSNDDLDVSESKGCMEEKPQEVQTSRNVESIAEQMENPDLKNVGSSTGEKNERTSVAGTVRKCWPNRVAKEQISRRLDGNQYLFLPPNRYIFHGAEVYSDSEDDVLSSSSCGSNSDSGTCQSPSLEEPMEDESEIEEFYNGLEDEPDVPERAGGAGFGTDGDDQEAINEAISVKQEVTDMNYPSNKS
Assay: TAMRA based mass spectrometry assay of SIRT1 activity
Assay type: biochemical
Conditions: for TAMRA EC1.5 / TAMRA EC1.5 (μM): concentration giving 150% activation of SIRT1; for Emax: percent maximum fold activation, read-out: TAMRA % Fold Act
Summary of the method: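 Recombinant N-terminal His-tagged human SIRT1 (10 nM, E. coli) incubated 25 min at 25 °C with 0.5 μM 5TMR-labelled p53-derived acetyl-peptide and 120 μM βNAD+ in Tris-acetate pH 8 buffer with DTT and 0.05% BSA, compound at varying concentrations. Stopped with formic acid; deacetylated peptide or OAADPR measured by mass spectrometry relative to DMSO controls.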

| SMILES | TAMRA EC1.5 (TAMRA peptide substrate) | Emax (TAMRA peptide substrate) [%] | TAMRA EC1.5 (μM) (TAMRA assay) | Emax (TAMRA assay) [%] |
| --- | --- | --- | --- | --- |
| Cc1nc2c(C)cc(-c3ccccc3C(F)(F)F)nn2c1C(=O)Nc1cccc(N2CC3(COC3)C2)n1 [Compound 562] | A (EC1.5<1 μM) | ≥ 350 | – | – |
| O=C(Nc1cnn2ccc(-c3ccccc3C(F)(F)F)nc12)c1nccs1 [Compound 563] | A (EC1.5<1 μM) | ≥ 350 | – | – |
| O=C(Nc1cnc2ccc(N3CC[C@H](F)C3)nn12)c1ccccn1 [Compound 564] | B (EC1.5 1-25 μM) | < 350 | – | – |
| Cc1nn2ccc(-c3ccccc3C(F)(F)F)nc2c1NC(=O)c1ccccn1 [Compound 567, N-(2-methyl-5-(2-(trifluoromethyl)phenyl)pyrazolo[1,5-a]pyrimidin-3-yl)picolinamide] | B (EC1.5 1-25 μM) | < 350 | – | – |
| Cc1nn2ccc(-c3ccccc3C(F)(F)F)nc2c1NC(=O)c1ccncc1 [Compound 569] | C (EC1.5>25 μM) | < 350 | – | – |
| Cc1nn2ccc(-c3ccccc3C(F)(F)F)nc2c1NC(=O)c1ncccn1 [Compound 570] | B (EC1.5 1-25 μM) | < 350 | – | – |
| Cc1nn2ccc(-c3ccccc3C(F)(F)F)nc2c1NC(=O)c1cccc(CN2CCOCC2)n1 [Compound 573] | B (EC1.5 1-25 μM) | < 350 | – | – |
| Cc1nn2ccc(-c3ccccc3C(F)(F)F)nc2c1NC(=O)c1cccc(O)n1 [Compound 575] | C (EC1.5>25 μM) | < 350 | – | – |
| COc1cccc(C(=O)Nc2c(C)nn3ccc(-c4ccccc4C(F)(F)F)nc23)n1 [Compound 576] | C (EC1.5>25 μM) | < 350 | – | – |
| Cc1cc(C)nc(NC(=O)c2cnc3ccc(N4CCCC(C(F)(F)F)C4)nn23)c1 (stereo not drawn) [Compound 579] | B (EC1.5 1-25 μM) | < 350 | – | – |
| O=C(Nc1cnn2ccc(-c3ccccc3OC(F)(F)F)nc12)c1ccccn1 [Compound 581] | A (EC1.5<1 μM) | ≥ 350 | – | – |
| O=C(Nc1cnn2ccc(-c3ccccc3OC(F)(F)F)nc12)c1cccnc1 [Compound 582] | B (EC1.5 1-25 μM) | < 350 | – | – |
| O=C(Nc1cnn2ccc(-c3ccccc3OC(F)(F)F)nc12)c1ccncn1 [Compound 585] | B (EC1.5 1-25 μM) | ≥ 350 | – | – |
| Cc1cc(-c2ccccc2C(F)(F)F)nn2c(C(=O)Nc3ccnc(OC4CCOCC4)n3)cnc12 [Compound 587] | A (EC1.5<1 μM) | ≥ 350 | – | – |
| Cc1nc(NC(=O)c2cnc3c(C)cc(-c4ccccc4C(F)(F)F)nn23)sc1C [Compound 588] | B (EC1.5 1-25 μM) | < 350 | – | – |
| O=C(Nc1ccnc(N2CC3(CCO3)C2)n1)c1cnc2ccc(-c3ccccc3C(F)(F)F)nn12 [Compound 592] | A (EC1.5<1 μM) | ≥ 350 | – | – |
| Cc1nc2c(C)cc(-c3ccccc3C(F)(F)F)nn2c1C(=O)Nc1ccnc(OC2CCOCC2)n1 [Compound 593] | A (EC1.5<1 μM) | ≥ 350 | – | – |
| COc1nccnc1NC(=O)c1cnc2c(C)cc(-c3ccccc3C(F)(F)F)nn12 [Compound 595] | A (EC1.5<1 μM) | < 350 | – | – |
| CCOc1nccc(NC(=O)c2cnc3c(C)cc(-c4ccccc4C(F)(F)F)nn23)n1 [Compound 596] | A (EC1.5<1 μM) | ≥ 350 | – | – |
| Cc1cc(-c2ccccc2C(F)(F)F)nn2c(C(=O)Nc3ccnc(O[C@H]4CCOC4)n3)cnc12 [Compound 601] | – | – | A (EC1.5<1 μM) | ≥ 350 |
| COc1cc(NC(=O)c2c(C)nc3ccc(-c4ccccc4C(F)(F)F)nn23)ncn1 [Compound 602] | – | – | A (EC1.5<1 μM) | ≥ 350 |

Second part, the molecule after the results:

| TAMRA EC1.5 (TAMRA peptide substrate) | Emax (TAMRA peptide substrate) [%] | TAMRA EC1.5 (μM) (TAMRA assay) | Emax (TAMRA assay) [%] | SMILES |
| --- | --- | --- | --- | --- |
| – | – | A (EC1.5<1 μM) | ≥ 350 | Cc1cc(C)nc(NC(=O)c2cnn3ccc(-c4ccccc4OC(F)(F)F)nc23)c1 [Compound 605] |
| – | – | B (EC1.5 1-25 μM) | < 350 | O=C(Nc1nccs1)c1cnn2ccc(-c3ccccc3OC(F)(F)F)nc12 [Compound 607] |
| – | – | C (EC1.5>25 μM) | < 350 | Cc1ccc(NC(=O)c2cnn3ccc(-c4ccccc4OC(F)(F)F)nc23)nc1 [Compound 608] |
| – | – | A (EC1.5<1 μM) | ≥ 350 | Cc1cc(NC(=O)c2cnn3ccc(-c4ccccc4OC(F)(F)F)nc23)cc(C)n1 [Compound 611] |
| – | – | A (EC1.5<1 μM) | < 350 | Cc1nccc(NC(=O)c2cnn3ccc(-c4ccccc4OC(F)(F)F)nc23)c1C [Compound 613] |
| – | – | A (EC1.5<1 μM) | ≥ 350 | Cc1nc(NC(=O)c2cnn3ccc(-c4ccccc4OC(F)(F)F)nc23)sc1C [Compound 614] |
| – | – | A (EC1.5<1 μM) | ≥ 350 | Cc1cccc(NC(=O)c2cnn3ccc(-c4ccccc4OC(F)(F)F)nc23)n1 [Compound 617] |
| – | – | A (EC1.5<1 μM) | ≥ 350 | Cc1cc(NC(=O)c2cnn3ccc(-c4ccccc4C(F)(F)F)nc23)ccn1 [Compound 619] |
| – | – | B (EC1.5 1-25 μM) | < 350 | Cc1nccc(NC(=O)c2cnn3ccc(-c4ccccc4C(F)(F)F)nc23)c1C [Compound 620] |
| – | – | A (EC1.5<1 μM) | ≥ 350 | Cc1cnc(NC(=O)c2cnn3ccc(-c4ccccc4OC(F)(F)F)nc23)cn1 [Compound 623] |
| – | – | B (EC1.5 1-25 μM) | < 350 | Cc1ccc(NC(=O)c2cnn3ccc(-c4ccccc4OC(F)(F)F)nc23)c(C)n1 [Compound 625] |
| – | – | A (EC1.5<1 μM) | ≥ 350 | CCOc1cc(NC(=O)c2cnn3ccc(-c4ccccc4OC(F)(F)F)nc23)ccn1 [Compound 626] |
| – | – | A (EC1.5<1 μM) | ≥ 350 | Cc1cc(NC(=O)c2c(C)nn3ccc(-c4ccccc4C(F)(F)F)nc23)ccn1 [Compound 629] |
| – | – | A (EC1.5<1 μM) | ≥ 350 | Cc1ccc(NC(=O)c2cnn3ccc(-c4ccccc4C(F)(F)F)nc23)cn1 [Compound 631] |
| – | – | A (EC1.5<1 μM) | ≥ 350 | Cc1cncc(NC(=O)c2cnn3ccc(-c4ccccc4C(F)(F)F)nc23)c1 [Compound 632] |
| – | – | A (EC1.5<1 μM) | ≥ 350 | COc1ccc(NC(=O)c2cnn3ccc(-c4ccccc4OC(F)(F)F)nc23)nn1 [Compound 635] |
| – | – | A (EC1.5<1 μM) | ≥ 350 | Cc1ccc(NC(=O)c2c(C)nn3ccc(-c4ccccc4C(F)(F)F)nc23)cn1 [Compound 637] |
| – | – | A (EC1.5<1 μM) | ≥ 350 | Cc1cncc(NC(=O)c2c(C)nn3ccc(-c4ccccc4C(F)(F)F)nc23)c1 [Compound 638] |
| – | – | B (EC1.5 1-25 μM) | ≥ 350 | Cc1ccc(NC(=O)c2cnn3ccc(-c4ccccc4C(F)(F)F)nc23)c(C)n1 [Compound 641] |
| – | – | A (EC1.5<1 μM) | ≥ 350 | CCOc1cc(NC(=O)c2cnn3ccc(-c4ccccc4C(F)(F)F)nc23)ccn1 [Compound 643] |
| – | – | A (EC1.5<1 μM) | ≥ 350 | Cc1cc(-c2ccccc2C(F)(F)F)nn2c(C(=O)Nc3cc(N4CCCC4)ncn3)cnc12 [Compound 646] |
| – | – | A (EC1.5<1 μM) | ≥ 350 | Cc1cc(NC(=O)c2c(C)nn3ccc(-c4ccccc4C(F)(F)F)nc23)cc(C)n1 [Compound 648] |
| – | – | A (EC1.5<1 μM) | < 350 | Cc1ccncc1NC(=O)c1c(C)nn2ccc(-c3ccccc3C(F)(F)F)nc12 [Compound 649] |
| – | – | A (EC1.5<1 μM) | ≥ 350 | Cc1nc(NC(=O)c2c(C)nn3ccc(-c4ccccc4C(F)(F)F)nc23)sc1C [Compound 651] |
| – | – | A (EC1.5<1 μM) | ≥ 350 | Cc1cnc(NC(=O)c2c(C)nn3ccc(-c4ccccc4C(F)(F)F)nc23)s1 [Compound 652] |
| – | – | A (EC1.5<1 μM) | ≥ 350 | Cc1ccc(NC(=O)c2cnn3ccc(-c4ccccc4C(F)(F)F)nc23)nn1 [Compound 655] |
| – | – | A (EC1.5<1 μM) | ≥ 350 | CCOc1ccc(NC(=O)c2cnn3ccc(-c4ccccc4C(F)(F)F)nc23)nn1 [Compound 658] |
| – | – | A (EC1.5<1 μM) | ≥ 350 | O=C(Nc1cncc(F)c1)c1cnn2ccc(-c3ccccc3OC(F)(F)F)nc12 [Compound 660] |
| – | – | B (EC1.5 1-25 μM) | < 350 | Cc1cc(C)c(NC(=O)c2cnn3ccc(-c4ccccc4OC(F)(F)F)nc23)cn1 [Compound 661] |
| – | – | A (EC1.5<1 μM) | < 350 | COCCOc1cc(NC(=O)c2cnc3c(C)cc(-c4ccccc4C(F)(F)F)nn23)ncn1 [Compound 662] |
